Target: T1, human kinase Mps-1 (Homo sapiens, UniProt P33981)
T1 construct: N-terminally GST-tagged human full length recombinant Mps-1 kinase; GST (N); purchased Invitrogen, Karslruhe, Germany PV4071
T1 sequence (P33981 1-857): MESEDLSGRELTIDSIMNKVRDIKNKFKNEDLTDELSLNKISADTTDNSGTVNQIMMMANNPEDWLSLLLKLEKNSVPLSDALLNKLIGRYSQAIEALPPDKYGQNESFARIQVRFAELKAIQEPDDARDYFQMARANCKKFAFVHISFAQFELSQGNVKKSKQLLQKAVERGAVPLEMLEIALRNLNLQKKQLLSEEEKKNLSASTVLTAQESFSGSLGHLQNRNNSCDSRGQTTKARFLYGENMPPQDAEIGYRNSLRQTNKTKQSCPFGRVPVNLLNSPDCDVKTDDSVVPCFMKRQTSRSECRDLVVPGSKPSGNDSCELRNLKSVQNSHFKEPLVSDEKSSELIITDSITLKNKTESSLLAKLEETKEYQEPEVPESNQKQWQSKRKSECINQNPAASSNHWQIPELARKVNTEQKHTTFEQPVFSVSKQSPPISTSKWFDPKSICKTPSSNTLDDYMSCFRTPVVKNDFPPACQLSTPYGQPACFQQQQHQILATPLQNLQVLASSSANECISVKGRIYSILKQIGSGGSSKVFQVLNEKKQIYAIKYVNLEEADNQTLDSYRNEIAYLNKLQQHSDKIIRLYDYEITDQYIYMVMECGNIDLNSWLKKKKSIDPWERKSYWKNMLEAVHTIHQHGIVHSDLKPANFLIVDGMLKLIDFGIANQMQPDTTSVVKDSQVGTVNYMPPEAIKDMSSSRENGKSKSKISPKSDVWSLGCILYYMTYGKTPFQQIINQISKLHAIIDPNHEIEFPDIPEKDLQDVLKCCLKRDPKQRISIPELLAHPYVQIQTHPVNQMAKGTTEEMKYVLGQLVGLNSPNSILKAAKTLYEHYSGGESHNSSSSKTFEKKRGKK
Test: Mps-1 kinase assay (TR-FRET)
Assay type: biochemical
Details: GST-tagged human full length recombinant Mps-1; 10 μM ATP; 1 μM peptide substrate; 60 min at 22° C.
Procedure, shortened: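 N-terminally GST-tagged full-length recombinant human Mps-1, about 1 nM final, phosphorylates a biotinylated peptide. Product detected by TR-FRET from Eu-anti-phospho-Ser/Thr antibody to streptavidin-XLent after 1 h at 22° C.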

| IC50 | SMILES |
| --- | --- |
| 4.9 nM | Cn1ccc(CNc2nc(-c3cccc(CC(N)=O)c3)cn3c(-c4ccc(C(=O)NC5CC5)cc4)cnc23)n1 [Example 1-94, 4-(6-[3-(2-Amino-2-oxo-ethyl)phenyl]-8-{[(1-methyl-1H-pyrazol-3-yl)methyl]amino}imidazo[1,2-a]pyrazin-3-yl)-N-cyclopropyl benzamide] |
| 20.4 nM | O=C(NC1CC1)c1ccc(-c2cnc3c(NCCOCC4CCCO4)nc(-c4ccccc4)cn23)cc1 (stereo not shown) [Example 3-41, N-cyclopropyl-4-(6-phenyl-8-{[2-(tetrahydrofuran-2-ylmethoxy)ethyl]amino}imidazo[1,2-a]pyrazin-3-yl)benzamide] |
| 67.2 nM | CC(C)CNc1nc(C(=O)Nc2ccccc2)cn2c(-c3ccc(C(=O)NC4CC4)cc3)cnc12 [Example 8-1, 3-[4-(cyclopropylcarbamoyl)phenyl]-8-[(2-methylpropyl)amino]-N-phenylimidazo[1,2-a]pyrazine-6-carboxamide] |
| 12.9 nM | O=C(NC1CC1)c1ccc(-c2cnc3c(NCCCn4ccnc4)nc(-c4ccncc4)cn23)cc1 [Example 3-16, N-cyclopropyl-4-[8-{[3-(1H-imidazol-1-yl)propyl]amino}-6-(pyridin-4-yl)imidazo[1,2-a]pyrazin-3-yl]benzamide] |
| 8 nM | CC(O)CNc1nc(-c2ccncc2)cn2c(-c3ccc(C(=O)NC4CC4)cc3)cnc12 (stereo not shown) [Example 3-23, N-cyclopropyl-4-{8-[(2-hydroxypropyl)amino]-6-(pyrdin-4-yl)imidazo [1,2-a]pyrazin-3-yl} benzamide] |
| 11.3 nM | O=C(NC1CC1)c1ccc(-c2cnc3c(NCCO)nc(-c4ccncc4)cn23)cc1 [Example 3-4, N-cyclopropyl-4-{8-[(2-hydroxyethyl)amino]-6-(pyridin-4-yl)imidazo [1,2-a]pyrazin-3-yl} benzamide] |
| 9.9 nM | CC(C)CNc1nc(C(N)=O)cn2c(-c3ccc(C(=O)NC4CC4)cc3)cnc12 [Example 14-1, 3-[4-(cyclopropylcarbamoyl)phenyl]-8-[(2-methylpropyl)amino]imidazo[1,2-a]pyrazine-6-carboxamide] |
| 3.6 nM | C=CCNc1nc(-c2ccccc2)cn2c(-c3ccc(C(=O)NC4CC4)cc3)cnc12 [Example 3-39, 4-[8-(Allylamino)-6-phenylimidazo[1,2-a]pyrazin-3-yl]-N-cyclopropylbenzamide] |
| 4.1 nM | O=C(NC1CC1)c1ccc(-c2cnc3c(NCCCCO)nc(-c4ccncc4)cn23)cc1 [Example 3-11, N-cyclopropyl-4-{8-[(4-hydroxybutyl)amino]-6-(pyridin-4-yl)imidazo [1,2-a]pyrazin-3-yl} benzamide] |
| 17.8 nM | O=C(NC1CC1)c1ccc(-c2cnc3c(NCCOCCOCCO)nc(-c4ccccc4)cn23)cc1 [Example 3-43, N-cyclopropyl-4-[8-({2-[2-(2-hydroxyethoxy)ethoxy]ethyl}amino)-6-phenylimidazo[1,2-a]pyrazin-3-yl]benzamide] |
| 6 nM | Cc1cc(-c2cnc3c(NCC4CCOC4)nc(C4=CCOCC4)cn23)ccc1C(=O)NC1CC1 (stereo not shown) [Example 6-11, N-cyclopropyl-4-{6-(3,6-dihydro-2H-pyran-4-yl)-8-[(tetrahydrofuran-3-ylmethyl)amino]imidazo[1,2-a]pyrazin-3-yl}-2-methylbenzamide] |
| 4.2 nM | Cc1cc(-c2cnc3c(NCCC(F)(F)F)nc(-c4cccnc4)cn23)ccc1C(=O)NC1CC1 [Example 1-70, N-cyclopropyl-2-methyl-4-{6-(pyridin-3-yl)-8-[(3,3,3-trifluoropropyl)amino]imidazo[1,2-a]pyrazin-3-yl}benzamide] |
| 2.3 nM | Cc1ccc(-c2cn3c(-c4ccc(C(=O)NC5CC5)cc4)cnc3c(NCC(C)C)n2)cc1CC(N)=O [Example 1-87, 4-{6-[3-(2-amino-2-oxoethyl)-4-methylphenyl]-8-(isobutyl-amino)imidazo[1,2-a]pyrazin-3-yl}-N-cyclopropyl-benzamide] |
| 3.2 nM | O=C(NC1CC1)c1ccc(-c2cnc3c(NCCCF)nc(-c4ccncc4)cn23)cc1 [Example 3-33, N-cyclopropyl-4-{8-[(3-fluoropropyl)amino]-6-(pyridin-4-yl)imidazo [1,2-a]pyrazin-3-yl} benzamide] |
| 1.7 nM | CCCCNc1nc(-c2ccncc2)cn2c(-c3ccc(C(=O)NC4CC4)cc3)cnc12 [Example 3-13, 4-[8-(butylamino)-6-(pyridin-4-yl)imidazo [1,2-a]pyrazin-3-yl]-N-cyclopropylbenzamide] |
| 77.6 nM | Cc1cc(-c2cnc3c(NCC4CCN(C)C4)nc(C4=CCOCC4)cn23)ccc1C(=O)NC1CC1 (stereo not shown) [Example 6-9, N-cyclopropyl-4-[6-(3,6-dihydro-2H-pyran-4-yl)-8-{[(1-methyl-pyrrolidin-3-yl)methyl]amino}imidazo[1,2-a]pyrazin-3-yl]-2-methylbenzamide] |

Continued, compound first:

| SMILES | IC50 |
| --- | --- |
| Cn1nccc1CNc1nc(-c2ccncc2)cn2c(-c3ccc(C(=O)NC4CC4)c(F)c3)cnc12 [Example 1-64, N-cyclopropyl-2-fluoro-4-[8-{[(1-methyl-1H-pyrazol-5-yl)methyl]amino}-6-(pyridin-4-yl)imidazo[1,2-a]pyrazin-3-yl]benzamide] | 6.5 nM |
| O=C(NC1CC1)c1ccc(-c2cnc3c(NCCC(F)(F)F)nc(-c4ccoc4)cn23)cc1Cl [Example 1-37, 2-chloro-N-cyclopropyl-4-{6-(furan-3-yl)-8-[(3,3,3-trifluoropropyl)amino]imidazo[1,2-a]pyrazin-3-yl}benzamide] | 8.1 nM |
| CC(C)(O)CNc1nc(-c2ccncc2)cn2c(-c3ccc(C(=O)NC4CC4)c(Cl)c3)cnc12 [Example 1-40, 2-chloro-N-cyclopropyl-4-{8-[(2-hydroxy-2-methylpropyl)amino]-6-(pyridin-4-yl)imidazo [1,2-a]pyrazin-3-yl} benzamide] | 57.7 nM |
| O=C(NC1CC1)c1ccc(-c2cnc3c(NCC4CCCO4)nc(-c4ccoc4)cn23)cc1Cl (stereo not shown) [Example 1-43, 2-chloro-N-cyclopropyl-4-{6-(furan-3-yl)-8-[(tetrahydrofuran-2-ylmethyl)amino]imidazo [1,2-a]pyrazin-3-yl} benzamide] | 42.8 nM |
| CC(C)(O)CNc1nc(C2=CCOCC2)cn2c(-c3ccc(C(=O)NC4CC4)c(F)c3)cnc12 [Example 1-60, N-cyclopropyl-4-{6-(3,6-dihydro-2H-pyran-4-yl)-8-[(2-hydroxy-2-methylpropyl)amino]imidazo[1,2-a]pyrazin-3-yl}-2-fluorobenzamide] | 30.4 nM |
| CC(C)CNc1nc(C2=CCOCC2)cn2c(-c3ccc(C(=O)NC4CC4)c(F)c3)cnc12 [Example 1-52, N-cyclopropyl-4-{6-(3,6-dihydro-2H-pyran-4-yl)-8-[(2-methylpropyl)amino]imidazo[1,2-a]pyrazin-3-yl}-2-fluoro-benzamide] | 8.2 nM |
| Cn1nccc1CNc1nc(-c2ccncc2)cn2c(-c3ccc(C(=O)NC4CC4)c(Cl)c3)cnc12 [Example 1-46, 2-chloro-N-cyclopropyl-4-[8-{[(1-methyl-1H-pyrazol-5-yl)methyl]amino}-6-(pyridin-4-yl)imidazo[1,2-a]pyrazin-3-yl]benzamide] | 32.6 nM |
| CC(C)CNc1nc(-c2ccn[nH]2)cn2c(-c3ccc(C(=O)NC4CC4)cc3)cnc12 [Example 1-30, N-cyclopropyl-4-{8-[(2-methylpropyl)amino]-6-(1H-pyrazol-5-yl)imidazo[1,2-a]pyrazin-3-yl}benzamide] | 1.7 nM |
| Cn1nccc1CNc1nc(-c2ccoc2)cn2c(-c3ccc(C(=O)NC4CC4)c(F)c3)cnc12 [Example 1-65, N-cyclopropyl-2-fluoro-4-[6-(furan-3-yl)-8-{[(1-methyl-1H-pyrazol-5-yl)methyl]amino}imidazo [1,2-a]pyrazin-3-yl] benzamide] | 4.3 nM |
| O=C(NC1CC1)c1ccc(-c2cnc3c(NCC4CCCO4)nc(-c4ccn[nH]4)cn23)cc1Cl (stereo not shown) [Example 1-44, 2-chloro-N-cyclopropyl-4-{6-(1H-pyrazol-5-yl)-8-[(tetrahydrofuran-2-ylmethyl)amino]imidazo [1,2-a]pyrazin-3-yl} benzamide] | 127 nM |
| CC(C)CNc1nc(-c2ccsc2)cn2c(-c3ccc(C(=O)NC4CC4)cc3)cnc12 [Example 1-10, N-cyclopropyl-4-{8-[(2-methylpropyl)amino]-6-(thiophen-3-yl)imidazo [1,2-a]pyrazin-3-yl} benzamide] | 3.4 nM |
| CC(C)(O)CNc1nc(-c2ccoc2)cn2c(-c3ccc(C(=O)NC4CC4)c(F)c3)cnc12 [Example 1-58, N-cyclopropyl-2-fluoro-4-{6-(furan-3-yl)-8-[(2-hydroxy-2-methyl-propyl)amino]imidazo [1,2-a]pyrazin-3-yl} benzamide] | 23.1 nM |

Reference: patent US20140135319A1, “6-SUBSTITUTED IMIDAZOPYRAZINES FOR USE AS MPS-1 AND TKK INHIBITORS IN THE TREATMENT OF HYPERPROLIFERATIVE DISORDERS” (BAYER INTELLECTUAL PROPERTY GMBH, priority 2010, published 2014)
